Laboratory results from patent US20060069132A1, “Azolecarboxamide herbicides” (priority 2004, published 2006).

Experiments:
[1] = system: cocklebur; test: Test B pre-/postemergence herbicide test; format: in vivo, Xanthium strumarium
In short: (§1)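 Seeds were planted and treated preemergence with compounds formulated in a non-phytotoxic solvent mixture containing surfactant, while plants at the 1- to 4-leaf stage (2 to 18 cm) received postemergence sprays. Flooded paddy plants were grown to the 2-leaf stage. After 13 to 15 days in a greenhouse, injury was visually rated 0–100 against untreated controls.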

[2] = system: barnyardgrass; test: Test B flooded paddy test; format: in vivo, Echinochloa crus-galli; conditions: 1000 g ai/ha, scale 0 to 100 (0 no effect, 100 complete control)
In short: (§2)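 Postemergence plants were sprayed with formulated test chemicals at 2 to 18 cm height (1- to 4-leaf stage); paddy species were grown to the 2-leaf stage. After 13 to 15 days in a greenhouse, injury was rated visually against untreated controls on a 0–100 scale (0 = no effect, 100 = complete control).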

[3] = system: corn; test: Test B pre-/postemergence herbicide test; format: in vivo, Zea mays
In short: (§3)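 Evaluation is visual, comparing treated with control plants on a scale where 0 means no effect and 100 means full control. Treatments were preemergence, or postemergence on seedlings 2–18 cm tall, and held 13–15 days in the greenhouse.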

[4] = system: large crabgrass; test: Test A pre-/postemergence herbicide test; format: in vivo, Digitaria sanguinalis; conditions: for Plant response rating, Crabgrass, Large: Postemergence; for Crabgrass, Large plant response rating: Preemergence
In short: (§4)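 Seeds sown in sandy loam received a preemergence directed soil spray of compound in non-phytotoxic solvent with surfactant; postemergence plants (2–10 cm, one- to two-leaf stage) were sprayed to runoff at the same time. After ~10 days in greenhouse, injury was rated visually versus untreated controls (0 = no effect, 100 = complete control).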

[5] = system: large crabgrass; test: Test B pre-/postemergence herbicide test; format: in vivo, Digitaria sanguinalis
In short: as §3

[6] = system: morningglory; test: Test A pre-/postemergence herbicide test; format: in vivo, Ipomoea spp.; conditions: for Plant response rating, Morningglory: Postemergence; for Morningglory plant response rating: Preemergence
In short: as §4

[7] = system: ducksalad; test: Test B flooded paddy test; format: in vivo, Heteranthera limosa; conditions: 1000 g ai/ha, scale 0 to 100 (0 no effect, 100 complete control)
In short: as §2

[8] = system: lambsquarters; test: Test B pre-/postemergence herbicide test; format: in vivo, Chenopodium album
In short: as §3

[9] = system: rice; test: Test B flooded paddy test; format: in vivo, Oryza sativa; conditions: 1000 g ai/ha, scale 0 to 100 (0 no effect, 100 complete control)
In short: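 Each value is a visual 0–100 response rating taken against controls 13 to 15 days after treatment in the greenhouse. Plants received formulated chemical postemergence at the 1- to 4-leaf stage or, in flooded paddy, at the 2-leaf stage.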

[10] = system: barnyardgrass; test: Test A pre-/postemergence herbicide test; format: in vivo, Echinochloa crus-galli; conditions: for Plant response rating, Barnyardgrass: Postemergence; for Barnyardgrass plant response rating: Preemergence
In short: as §4

[11] = system: pigweed; test: Test B pre-/postemergence herbicide test; format: in vivo, Amaranthus retroflexus
In short: as §3

[12] = system: barnyardgrass; test: Test B pre-/postemergence herbicide test; format: in vivo, Echinochloa crus-galli
In short: as §1

[13] = system: velvetleaf; test: Test B pre-/postemergence herbicide test; format: in vivo, Abutilon theophrasti
In short: as §3

[14] = system: blackgrass; test: Test B postemergence herbicide test; format: in vivo, Alopecurus myosuroides
In short: as §2

[15] = system: giant foxtail; test: Test A pre-/postemergence herbicide test; format: in vivo, Setaria faberi; conditions: for Plant response rating, Foxtail, Giant: Postemergence; for Foxtail, Giant plant response rating: Preemergence
In short: as §4

[16] = system: Surinam grass; test: Test B pre-/postemergence herbicide test; format: in vivo, Urochloa decumbens
In short: as §3

[17] = system: wheat; test: Test B postemergence herbicide test; format: in vivo, Triticum aestivum; parameters: key to Wheat plant response rating: 0 = no effect, 100 = complete control
In short: (§5)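 Read-out: visual comparison with controls, scored 0 to 100, where 100 means complete control and 0 no effect. Formulated chemicals were applied postemergence to plants 2–18 cm tall (1- to 4-leaf), or to flooded-paddy plants at the 2-leaf stage, then held 13 to 15 days under glass.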

[18] = system: redroot pigweed; test: Test A pre-/postemergence herbicide test; format: in vivo, Amaranthus retroflexus; conditions: for Plant response rating, Pigweed: Postemergence; for Pigweed plant response rating: Preemergence
In short: as §4

[19] = system: morningglory; test: Test B pre-/postemergence herbicide test; format: in vivo, Ipomoea coccinea
In short: as §1

[20] = system: rice; test: Test B pre-/postemergence herbicide test; format: in vivo, Oryza sativa; conditions: preemergence
In short: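 Plants compared with untreated controls 13–15 days post-treatment and given a visual 0–100 injury score. Applications: preemergence to seeds; postemergence at 1- to 4-leaf (2–18 cm); paddy species flooded, 2-leaf stage. Vehicle non-phytotoxic, surfactant included.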

[21] = system: wild oat; test: Test B postemergence herbicide test; format: in vivo, Avena fatua
In short: as §5

[22] = system: giant foxtail; test: Test B pre-/postemergence herbicide test; format: in vivo, Setaria faberi
In short: as §3

[23] = system: small flower umbrella sedge; test: Test B flooded paddy test; format: in vivo, Cyperus difformis; conditions: 1000 g ai/ha, scale 0 to 100 (0 no effect, 100 complete control)
In short: as §2

[24] = system: velvetleaf; test: Test A pre-/postemergence herbicide test; format: in vivo, Abutilon theophrasti; conditions: for Velvetleaf plant response rating: Preemergence, visual rating, 0 to 100 scale (0 no effect, 100 complete control)
In short: as §4

[25] = Postemergence, 500 g ai/ha, visual rating after 13 to 15 days, scale 0 (no effect) to 100 (complete control)
[26] = Preemergence, 500 g ai/ha, scale 0 to 100
[27] = postemergence, 125 g ai/ha, visual rating, scale 0 (no effect) to 100 (complete control)
[28] = preemergence, 125 g ai/ha, 0 to 100 scale, 0 is no effect, 100 is complete control
[29] = 500 g ai/ha, 0 to 100 scale, 0 no effect, 100 complete control
[30] = 2000 g ai/ha, 0 to 100 scale, 0 no effect, 100 complete control
[31] = 500 g ai/ha, visual rating, 0 to 100 scale (0 no effect, 100 complete control)
[32] = Postemergence, 500 g ai/ha; visual rating after 13 to 15 days, scale 0 (no effect) to 100 (complete control)
[33] = postemergence, 125 g ai/ha; visual rating, scale 0 (no effect) to 100 (complete control)
[34] = preemergence, 125 g ai/ha; 0 to 100 scale, 0 is no effect, 100 is complete control
[35] = 125 g ai/ha, 0 = no effect, 100 = complete control, preemergence
[36] = 125 g ai/ha, visual rating, scale 0 (no effect) to 100 (complete control), postemergence
[37] = 500 g ai/ha, visual rating, 0 = no effect, 100 = complete control, preemergence
[38] = postemergence, 500 g ai/ha, scale 0 to 100, 0 is no effect, 100 is complete control
[39] = 125 g ai/ha; 0 = no effect, 100 = complete control; preemergence
[40] = 125 g ai/ha; visual rating, scale 0 (no effect) to 100 (complete control); postemergence
[41] = 500 g ai/ha; visual rating, 0 = no effect, 100 = complete control; preemergence
[42] = postemergence, 500 g ai/ha; scale 0 to 100, 0 is no effect, 100 is complete control

CCn1nc(C(C)(C)C)cc1C(=O)Nc1cccc2c1CCN(C1CCCC1)C2=O [Compound 66]
70: Plant response rating, Lambsquarters [8, 32]
30: Plant response rating, Cocklebur [1, 25] | Plant response rating, Pigweed [11, 32] | Barnyardgrass plant response rating [12, 26]
20: Cocklebur plant response rating [1, 27] | Plant response rating, Corn [3, 25] | Barnyardgrass plant response rating [10, 30] | Pigweed plant response rating [11, 33] | Plant response rating, Blackgrass [14, 32] | Plant response rating, Morningglory [19, 32] | Morningglory plant response rating [19, 33] | Plant response rating, Foxtail, Giant [22, 25]
60: Lambsquarters plant response rating [8, 33]
0: Cocklebur plant response rating [1, 26] | Plant response rating, Cocklebur [1, 28] | Corn plant response rating [3, 26] | Plant response rating, Corn [3, 28] | Plant response rating, Crabgrass, Large [4, 29] | Plant response rating, Crabgrass, Large [4, 30] | Crabgrass, Large plant response rating [4, 31] | Crabgrass, Large plant response rating [4, 30] | Crabgrass, Large plant response rating [5, 27] | Plant response rating, Crabgrass, Large [5, 28] | Plant response rating, Morningglory [6, 29] | Plant response rating, Morningglory [6, 30] | Morningglory plant response rating [6, 31] | Morningglory plant response rating [6, 30] | Ducksalad plant response rating ([7]; visual rating, 13 to 15 days) | Plant response rating, Lambsquarters [8, 34] | Rice plant response rating ([9]; visual rating, 13 to 15 days) | Plant response rating, Barnyardgrass [10, 29] | Plant response rating, Barnyardgrass [10, 30] | Barnyardgrass plant response rating [10, 31] | Plant response rating, Pigweed [11, 34] | Barnyardgrass plant response rating [12, 27] | Plant response rating, Barnyardgrass [12, 28] | Plant response rating, Velvetleaf [13, 34] | Blackgrass plant response rating [14, 33] | Plant response rating, Foxtail, Giant [15, 29] | Plant response rating, Foxtail, Giant [15, 30] | Foxtail, Giant plant response rating [15, 31] | Foxtail, Giant plant response rating [15, 30] | Plant response rating, Surinam Grass [16, 34] | Wheat plant response rating [17, 33] | Pigweed plant response rating [18, 31] | Pigweed plant response rating [18, 30] | Plant response rating, Morningglory [19, 34] | Plant response rating, Rice ([20]; 125 g ai/ha, 0 to 100 scale, 0 is no effect, 100 is complete control) | Foxtail, Giant plant response rating [22, 27] | Plant response rating, Foxtail, Giant [22, 28] | Plant response rating, Velvetleaf ([24]; Postemergence, 2000 g ai/ha, 0 to 100 scale, 0 no effect, 100 complete control) | Velvetleaf plant response rating ([24]; 500 g ai/ha) | Velvetleaf plant response rating ([24]; 2000 g ai/ha)
10: Barnyardgrass plant response rating ([2]; visual rating, 13 to 15 days) | Corn plant response rating [3, 27] | Plant response rating, Crabgrass, Large [5, 25] | Crabgrass, Large plant response rating [5, 26] | Plant response rating, Barnyardgrass [12, 25] | Plant response rating, Velvetleaf [13, 32] | Velvetleaf plant response rating [13, 33] | Plant response rating, Surinam Grass [16, 32] | Surinam Grass plant response rating [16, 33] | Plant response rating, Wheat [17, 32] | Plant response rating, Pigweed [18, 29] | Plant response rating, Pigweed [18, 30] | Plant response rating, Oat, Wild [21, 32] | Oat, Wild plant response rating [21, 33] | Foxtail, Giant plant response rating [22, 26] | Sedge, Umbrella plant response rating ([23]; visual rating, 13 to 15 days)

CCc1nn(C(C)(C)C)cc1C(=O)Nc1cccc(C(=O)N(C)C)n1 [Compound 292]
100: Plant response rating, Crabgrass, Large [5, 37] | Plant response rating, Lambsquarters [8, 41] | Plant response rating, Pigweed [11, 41] | Plant response rating, Surinam Grass [16, 41]
60: Sedge, Umbrella plant response rating [23]
70: Lambsquarters plant response rating (0 to 100 scale) [8, 39] | Lambsquarters plant response rating [8, 42] | Plant response rating, Velvetleaf [13, 41] | Plant response rating, Foxtail, Giant [22, 37]
10: Cocklebur plant response rating [1, 38] | Corn plant response rating [3, 36] | Crabgrass, Large plant response rating [5, 38] | Barnyardgrass plant response rating (0 to 100 scale) [12, 35] | Velvetleaf plant response rating [13, 40] | Velvetleaf plant response rating [13, 42] | Blackgrass plant response rating [14, 40] | Oat, Wild plant response rating [21, 40]
30: Lambsquarters plant response rating [8, 40] | Rice plant response rating [9] | Pigweed plant response rating [11, 42] | Plant response rating, Morningglory [19, 41]
90: Plant response rating, Barnyardgrass [12, 37] | Plant response rating, Rice ([20]; 500 g ai/ha, visual rating, 0 = no effect, 100 = complete control)
80: Plant response rating, Corn [3, 37] | Crabgrass, Large plant response rating (0 to 100 scale) [5, 35]
40: Plant response rating, Cocklebur [1, 37] | Pigweed plant response rating (0 to 100 scale) [11, 39] | Oat, Wild plant response rating [21, 42]
20: Barnyardgrass plant response rating [2] | Corn plant response rating [3, 38] | Pigweed plant response rating [11, 40] | Blackgrass plant response rating [14, 42] | Surinam Grass plant response rating (0 to 100 scale) [16, 39] | Surinam Grass plant response rating [16, 42] | Wheat plant response rating [17, 42] | Morningglory plant response rating [19, 42] | Foxtail, Giant plant response rating [22, 38]
0: Cocklebur plant response rating (0 to 100 scale) [1, 35] | Cocklebur plant response rating [1, 36] | Corn plant response rating (0 to 100 scale) [3, 35] | Crabgrass, Large plant response rating [5, 36] | Ducksalad plant response rating [7] | Barnyardgrass plant response rating [12, 36] | Barnyardgrass plant response rating [12, 38] | Surinam Grass plant response rating [16, 40] | Wheat plant response rating [17, 40] | Morningglory plant response rating (0 to 100 scale) [19, 39] | Morningglory plant response rating [19, 40] | Rice plant response rating (0 to 100 scale) ([20]; 125 g ai/ha, 0 = no effect, 100 = complete control) | Foxtail, Giant plant response rating (0 to 100 scale) [22, 35] | Foxtail, Giant plant response rating [22, 36]
